From ChEMBL document CHEMBL1141825, “Chemistry of verongida sponges. 9.1 secondary metabolite composition of the caribbean sponge aplysina cauliformis” (J Nat Prod, 1999)
Converted amounts (≈) assume the structure as drawn.

Tested on: HeLa
Assay: Antiproliferative activity against human HeLa cells assessed as [3H]thymidine incorporation after 72 hrs by miniaturized, improved, nucleic acid precursor incorporation assay
Assay type: functional, cell-based

IC50: 50 µg/mL (≈ 95.2 µM)
Structure (SMILES): COC(=O)NCC(=O)CCNC(=O)C1=NO[C@]2(C=C(Br)C(OC)=C(Br)[C@@H]2O)C1
